From patent publication US20230303540A1 (Merck Sharp & Dohme LLC, priority 2020, published 2023)

Molecular target: GST-tagged truncated human mutant G2019S LRRK2 (Homo sapiens, UniProt Q5S007, G2019S)
Experiment: LRRK2 G2019S Km ATP LanthaScreen assay
Type: biochemical
Settings: 134 μM ATP (Km ATP), LRRKtide substrate, mean IC50 values; read-out: LRRK2 pIC50 (converted)
How it was run: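 LanthaScreen TR-FRET read with fluorescein-LRRKtide and 134 μM ATP (Km) in Tris pH 8.5/10 mM MgCl2 buffer. The enzyme was preincubated 15 min with compound at room temperature, and the reaction ran 90 min at ambient temperature. Stopped with EDTA plus Tb anti-phospho-LRRKtide antibody; the 520/495 nm ratio gave a 4-parameter logistic IC50, mean of several runs.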

| Compound | IC50 [nM] |
| --- | --- |
| CCn1ncc(Nc2ncc3ccc(N4CCC4C)cc3n2)c1C (single isomer, unassigned) [Ex-1.11, (S) or (R) N-(1-ethyl-5-methyl-1H-pyrazol-4-yl)-7-(2-methylazetidin-1-yl)quinazolin-2-amine] | 33.2 |
| Cc1cc2cnc(Nc3cnn(C45CC(F)(C4)C5)c3Cl)nc2cc1N1CCNCC1 [Ex-5.15, N-(5-chloro-1-(3-fluorobicyclo[1.1.1]pentan-1-yl)-1H-pyrazol-4-yl)-6-methyl-7-(piperazin-1-yl)quinazolin-2-amine] | 25.1 |
| CN1CCC2(CCN(c3cc4nc(Nc5cnn(CC(C)(C)O)c5Cl)ncc4cc3Cl)C2)C1 (centres unmarked) [Ex-1.13, 1-(5-chloro-4-{[6-chloro-7-(7-methyl-2,7-diazaspiro[4.4]nonan-2-yl)quinazolin-2-yl]amino}-1H-pyrazol-1-yl)-2-methylpropan-2-ol] | 21 |
| Cc1c(Nc2ncc3ccc(N4C(=O)OC[C@H]4C)cc3n2)cnn1C1CCOCC1 [Ex-7.11, (4R)-4-methyl-3-(2-{[5-methyl-1-(oxan-4-yl)-1H-pyrazol-4-yl]amino}quinazolin-7-yl)-1,3-oxazolidin-2-one] | 9.35 |
| Cc1cc2cnc(Nc3cnn(C4CC4)c3C)nc2cc1N1CCN(C2(C)COC2)CC1 [Ex-5.11, N-(1-cyclopropyl-5-methyl-1H-pyrazol-4-yl)-6-methyl-7-[4-(3-methyloxetan-3-yl)piperazin-1-yl]quinazolin-2-amine] | 2.82 |
| CN1CC2(C1)CN(c1cc3nc(Nc4cnn(C5(C)CC5)c4Cl)ncc3cc1Cl)C2 [Ex-4.37, 6-chloro-N-[5-chloro-1-(1-methylcyclopropyl)-1H-pyrazol-4-yl]-7-(6-methyl-2,6-diazaspiro[3.3.]heptan-2-yl)quinazolin-2-amine] | 1.24 |
| Cc1c(Nc2ncc3cc(F)c(NCC4CC4)nc3n2)cnn1C1CCOCC1 [Ex-15.5, N-7-(cyclopropylmethyl)-6-fluoro-N-2-[5-methyl-1-(oxan-4-yl)-1H-pyrazol-4-yl]pyrido[2,3-d]pyrimidine-2,7-diamine] | 32.6 |
| COC1CCC1n1ncc(Nc2ncc3cc(Cl)c(N4CCC(C)(O)CC4)cc3n2)c1C (single isomer, unassigned) [Ex-6.19, 1-[6-chloro-2-({1-[(1R,2R) or (1S,2S)-2-methoxycyclobutyl]-5-methyl-1H-pyrazol-4-yl}amino)quinazolin-7-yl]-4-methylpiperidin-4-ol] | 2.17 |
| CC1(N2CCN(c3cc4nc(Nc5cnn(C6CC6(F)F)c5Cl)ncc4cc3Cl)CC2)COCC1O (single isomer, unassigned) [Ex-6.34, (3S,4S) or (3R,4R) 4-[4-(6-chloro-2-{[5-chloro-1-(2,2-(R) or (S)difluorocyclopropyl)-1H-pyrazol-4-yl]amino}quinazolin-7-yl)piperazin-1-yl]-4-methyloxolan-3-ol] | 10.6 |
| OCC1CCN(c2cc3nc(Nc4cnn(CC(F)F)c4Cl)ncc3cc2Cl)C1 (centres unmarked) [Ex-1.15, [1-(6-chloro-2-{[5-chloro-1-(2,2-difluoroethyl)-1H-pyrazol-4-yl]amino}quinazolin-7-yl)pyrrolidin-3-yl]methanol] | 5.49 |
| CC1(N2CCN(c3cc4nc(Nc5cnn(C6CC6)c5)ncc4cc3Cl)CC2)COC1 [Ex-4.18, 6-chloro-N-(1-cyclopropyl-1H-pyrazol-4-yl)-7-[4-(3-methyloxetan-3-yl)piperazin-1-yl]quinazolin-2-amine] | 2.39 |
| Cc1nsc(Nc2ncc3ccc(N4C(=O)C5CCC4C5)cc3n2)c1C (centres unmarked) [Ex-8.15, 2-{2-[(3,4-dimethyl-1,2-thiazol-5-yl)amino]quinazolin-7-yl}-2-azabicyclo[2.2.1]heptan-3-one] | 2.59 |
| Cc1cc2cnc(Nc3cnn(C4CC4(F)F)c3Cl)nc2cc1N1CCNCC1 (centres unmarked) [Ex-5.14, N-(5-chloro-1-(2,2-difluorocyclopropyl)-1H-pyrazol-4-yl)-6-methyl-7-(piperazin-1-yl)quinazolin-2-amine] | 11.6 |
| Cn1ncc(Nc2ncc3cc(Cl)c(N4CCN(C5(C)COCC5O)CC4)cc3n2)c1Cl (single isomer, unassigned) [Ex-6.28, (3S,4S) or (3R,4R) 4-(4-{6-chloro-2-[(5-chloro-1-methyl-1H-pyrazol-4-yl)amino]quinazolin-7-yl}piperazin-1-yl)-4-methyloxolan-3-ol] | 0.381 |
| CN1CCN(c2cc3nc(Nc4cnn(C)c4Cl)ncc3cc2Cl)CC1 [Ex-11.1, 6-Chloro-N-(5-chloro-1-methyl-1H-pyrazol-4-yl)-7-(4-methylpiperazin-1-yl)quinazolin-2-amine] | 11.7 |
| CN(C)c1cc2nc(Nc3cnn(C4CC4)c3)ncc2cc1Cl [Ex-3.29, 6-chloro-N-2-(1-cyclopropyl-1H-pyrazol-4-yl)-N-7-,N-7-dimethylquinazoline-2,7-diamine] | 8.79 |
| Cc1c(Nc2ncc3cc(Cl)c(N4CCN(C5COCC5O)CC4)cc3n2)cnn1CC(F)F (single isomer, unassigned) [Ex-6.26, (3S,4S) or (3R,4R) 4-[4-(6-chloro-2-{[1-(2,2-difluoroethyl)-5-methyl-1H-pyrazol-4-yl]amino}quinazolin-7-yl)piperazin-1-yl]oxolan-3-ol] | 11.5 |
| OC1COCC12CCN(c1cc3nc(Nc4cnn(C5CC5(F)F)c4Cl)ncc3cc1Cl)CC2 (single isomer, unassigned) [Ex-3.56] | 3.56 |
| CC(C)(C)n1ncc(Nc2ncc3cc(Cl)c(N4CCC(N5CC(F)(F)C5)CC4)cc3n2)c1Cl [Ex-4.33, N-(1-tert-butyl-5-chloro-1H-pyrazol-4-yl)-6-chloro-7-[4-(3,3-difluoroazetidin-1-yl)piperidin-1-yl]quinazolin-2-amine] | 4.75 |
| O[C@@H]1COCC12CCN(c1cc3nc(Nc4cnn(C5CC5)c4Cl)ncc3cc1Cl)CC2 [Ex-3.3] | 17.2 |
